The results in this text go back to paper PMC6524640 (Biochimica et biophysica acta. Biomembranes, 2019).

The experiment concerns the target Ca2+/CaM (Homo sapiens, UniProt P0DP23). Type of experiment: binding.

No end group written: not given here.

HAGKTGSSGPLQ [SFFA] returned a Kd of 0.27 µM. This counts as sub-micromolar.

On to HFGKTGAASDQR [LFRA], for which the Kd came to 750 µM.

For HFGKpTGSSGPLQ [pSFWT], the “KD from titration to 15N-labeled Ca2+/CaM (result in words)” value (nanodisc free solution, same conditions as the SFWT peptide) is on record as “did not reach saturation”.

Broadly, the Kd is the free concentration of one partner at which half of the binding sites on the other are occupied at equilibrium, for simple one-to-one binding. Read a high Kd as weaker binding.
